Molecular target: Protein cereblon/Tyrosine-protein kinase JAK2 (Homo sapiens, UniProt O60674+Q96SW2)
Test: Protac activity at E3 ubiquitin ligase/JAK2 in human MHH-CALL-4 cells assessed as E3 ubiquitin ligase mediated JAK2 degradation incubated for 32 hrs by immunoblotting analysis
Format: cell-based, MHHCALL4

Sequence of Protein cereblon/Tyrosine-protein kinase JAK2 (O60674 whole entry): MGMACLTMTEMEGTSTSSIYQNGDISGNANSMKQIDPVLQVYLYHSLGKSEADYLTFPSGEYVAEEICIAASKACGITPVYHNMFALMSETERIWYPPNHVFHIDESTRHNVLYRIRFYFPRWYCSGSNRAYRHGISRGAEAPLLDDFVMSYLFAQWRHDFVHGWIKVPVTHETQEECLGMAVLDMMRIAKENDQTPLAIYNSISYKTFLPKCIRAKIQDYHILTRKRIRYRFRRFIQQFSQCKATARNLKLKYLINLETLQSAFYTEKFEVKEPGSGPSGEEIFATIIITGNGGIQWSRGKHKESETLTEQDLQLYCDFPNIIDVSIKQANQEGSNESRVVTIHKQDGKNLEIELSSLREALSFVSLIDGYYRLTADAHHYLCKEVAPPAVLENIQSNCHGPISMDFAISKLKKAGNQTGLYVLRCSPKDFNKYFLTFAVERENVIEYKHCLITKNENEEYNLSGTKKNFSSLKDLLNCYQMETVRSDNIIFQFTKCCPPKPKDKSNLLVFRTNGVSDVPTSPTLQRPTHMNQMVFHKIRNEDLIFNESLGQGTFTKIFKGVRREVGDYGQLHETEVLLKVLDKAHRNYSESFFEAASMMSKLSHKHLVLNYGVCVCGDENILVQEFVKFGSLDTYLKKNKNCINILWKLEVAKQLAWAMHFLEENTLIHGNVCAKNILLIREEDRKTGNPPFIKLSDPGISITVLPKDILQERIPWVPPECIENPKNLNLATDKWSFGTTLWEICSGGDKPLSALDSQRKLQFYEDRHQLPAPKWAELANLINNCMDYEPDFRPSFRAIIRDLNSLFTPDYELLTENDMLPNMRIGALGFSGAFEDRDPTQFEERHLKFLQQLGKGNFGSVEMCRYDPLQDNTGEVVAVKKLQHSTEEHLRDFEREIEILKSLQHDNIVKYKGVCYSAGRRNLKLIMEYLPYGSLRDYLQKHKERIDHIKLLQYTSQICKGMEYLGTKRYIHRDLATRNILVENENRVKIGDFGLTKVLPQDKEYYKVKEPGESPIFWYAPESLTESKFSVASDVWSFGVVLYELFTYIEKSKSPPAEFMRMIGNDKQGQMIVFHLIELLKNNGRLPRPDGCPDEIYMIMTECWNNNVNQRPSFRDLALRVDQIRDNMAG
Sequence of Protein cereblon/Tyrosine-protein kinase JAK2 (Q96SW2 whole entry): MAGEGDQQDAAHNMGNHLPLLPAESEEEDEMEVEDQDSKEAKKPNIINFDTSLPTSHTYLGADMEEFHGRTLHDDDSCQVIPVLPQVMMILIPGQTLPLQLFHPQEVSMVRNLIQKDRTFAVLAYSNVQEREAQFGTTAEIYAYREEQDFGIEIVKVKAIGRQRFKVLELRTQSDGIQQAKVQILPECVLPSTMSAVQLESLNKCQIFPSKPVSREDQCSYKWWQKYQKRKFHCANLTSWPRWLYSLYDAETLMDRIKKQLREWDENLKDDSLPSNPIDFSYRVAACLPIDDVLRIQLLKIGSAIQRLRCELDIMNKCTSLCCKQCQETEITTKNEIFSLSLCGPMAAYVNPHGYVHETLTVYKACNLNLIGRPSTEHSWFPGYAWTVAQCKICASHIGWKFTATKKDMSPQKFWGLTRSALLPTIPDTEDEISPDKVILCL

Molecule `CCCn1cc(-c2nc(Nc3ccc(C(=O)NCCCCCc4cccc5c4CN(C4CCC(=O)NC4=O)C5=O)cc3)nc3[nH]ccc23)cn1` (stereo unspecified) has an EC50 of 0.5 nM.
